Assay [1] relates to Botrytis cinerea. Nature of the assay: Antifungal activity against Botryotinia fuckeliana Bc-44 in kidney bean leaves assessed as reduction of disease diameter lesions at 200 ppm after 4 days. It is filed as functional. Also noted: scale not given: the % may be the effect or the level left.
The subject of assay [2] is Botrytis cinerea. The assay is described as follows: Antifungal activity against benzimidazole-sensitive Botryotinia fuckeliana Bc-9 assessed as inhibition of hyphae extension at 15 ug/ml after 48 hr. It is filed as functional, organism-based.
Assay [3] concerns Botrytis cinerea. Nature of the assay: Antifungal activity against benzimidazole-sensitive Botryotinia fuckeliana Bc-9 assessed as distorted and swollen germ tube at 15 ug/ml after 48 hr. It counts as functional, organism-based.
Assay [4] has as its system Botrytis cinerea. Nature of the assay: Antifungal activity against benzimidazole-resistant Botryotinia fuckeliana Bc-44 assessed as inhibition of hyphae extension at 15 ug/ml after 48 hr. It is filed as functional, organism-based.
Assay [5] has as its system Botrytis cinerea. The assay is described as follows: Antifungal activity against benzimidazole-resistant Botryotinia fuckeliana Bc-44 assessed as distorted and swollen germ tube at 15 ug/ml after 48 hr. It is filed as functional, organism-based.
For assay [6], the system named is Botrytis cinerea. Nature of the assay: Antifungal activity against benzimidazole-resistant Botryotinia fuckeliana Bc-44 assessed as inhibition of conidia germination at 15 ug/ml after 48 hr. It is filed as functional, organism-based.
Assay [7] concerns Botrytis cinerea. The assay is described as follows: Resistant ratio of EC50 for benzimidazole-sensitive Botryotinia fuckeliana Bc-9 to EC50 for benzimidazole-resistant Botryotinia fuckeliana Bc-44. It is filed as functional.
Assay [8] relates to Botrytis cinerea. The assay is described as follows: Antifungal activity against benzimidazole-sensitive Botryotinia fuckeliana Bc-9 assessed as inhibition of radial mycelial growth after 48 hr. It is filed as functional, organism-based.
The subject of assay [9] is Botrytis cinerea. The assay is described as follows: Antifungal activity against benzimidazole-resistant Botryotinia fuckeliana Bc-44 assessed as inhibition of radial mycelial growth after 48 hr. It is filed as functional, organism-based.
Assay [10] relates to Botrytis cinerea. Nature of the assay: Antifungal activity against Botryotinia fuckeliana Bc-44 in kidney bean leaves assessed as reduction of disease diameter lesions at 50 ppm after 4 days. It is filed as functional. Details: scale not given: the % may be the effect or the level left.
Assay [11] concerns Botrytis cinerea. Nature of the assay: Antifungal activity against benzimidazole-sensitive Botryotinia fuckeliana Bc-9 assessed as inhibition of hyphae extension at 1 ug/ml after 48 hr. It is filed as functional, organism-based.
Assay [12] concerns Botrytis cinerea. The assay is described as follows: Antifungal activity against benzimidazole-sensitive Botryotinia fuckeliana Bc-9 assessed as distorted and swollen germ tube at 1 ug/ml after 48 hr. It counts as functional, organism-based.

The source made the active and inactive calls. The calls are words filed in the database; no cut-off is given here. Bounds are passed on as bounds.

On to `CO/N=C/Nc1cc(Cl)cc(Cl)c1`, for which the Activity with Botrytis cinerea [1] was 100%; in the assay with Botrytis cinerea [10], 90%. In addition, the inhibition result with Botrytis cinerea [2] and in the assay on Botrytis cinerea [3] was “inactive” each time. The inhibition result with Botrytis cinerea [4] and in the assay on Botrytis cinerea [5] was “Active” in each case. Besides, in the assay on Botrytis cinerea [6], the outcome was inactive. Besides, the “Ratio EC50” value in the assay on Botrytis cinerea [7] was determined as 10. Further, the values for the EC50 with Botrytis cinerea [8] and in the assay with Botrytis cinerea [9] were 30 ppm and 3 ppm, respectively.

In the case of `N#CNc1cc(Cl)cc(Cl)c1`, the Activity with Botrytis cinerea [1] and with Botrytis cinerea [10] was less than 25% each time.

In the case of `CCO/N=C(\C)Nc1cc(Cl)cc(Cl)c1`, the Activity with Botrytis cinerea [1] is reported as 100%; in the assay with Botrytis cinerea [10], 50%.

As to `COC(=O)Nc1cc(Cl)cc(Cl)c1`, the Activity is listed as 100% in the assay with Botrytis cinerea [1] and 90% in the assay on Botrytis cinerea [10]. In addition, the inhibition result with Botrytis cinerea [11] and with Botrytis cinerea [12] was “inactive” each time. Moreover, the “Ratio EC50” value with Botrytis cinerea [7] is 25. The EC50 is given as 5 ppm in the assay on Botrytis cinerea [8] and 0.2 ppm in the assay with Botrytis cinerea [9].

For the molecule `CCO/N=C/Nc1cc(Cl)cc(Cl)c1`, the values for the Activity with Botrytis cinerea [1] and in the assay on Botrytis cinerea [10] were 100% and 90%, respectively.

For `Clc1cc(Cl)cc(Nc2nccs2)c1`, the Activity in the assay with Botrytis cinerea [1] is 26%; in the assay with Botrytis cinerea [10], less than 25%.

For `CNC(=O)Oc1nc2ccccc2[nH]1`, the “Ratio EC50” value in the assay on Botrytis cinerea [7] was determined as 0.0005. Further, the EC50 with Botrytis cinerea [8] is recorded as 0.05 ppm; with Botrytis cinerea [9], more than 100 ppm.

Regarding `CCONC(=O)Nc1cc(Cl)cc(Cl)c1`, the Activity in the assay on Botrytis cinerea [1] and in the assay on Botrytis cinerea [10] was less than 25% throughout.

Turning to `CN(C#N)c1cc(Cl)cc(Cl)c1`, the Activity in the assay on Botrytis cinerea [1] stood at 90%; in the assay on Botrytis cinerea [10], 26%.

For the molecule `CCONC(=S)Nc1cc(Cl)cc(Cl)c1`, the Activity in the assay with Botrytis cinerea [1] and with Botrytis cinerea [10] was less than 25% throughout.

On to `CCO/N=C(/Nc1cc(Cl)cc(Cl)c1)SC`, for which the Activity is recorded as 26% in the assay with Botrytis cinerea [1] and less than 25% in the assay with Botrytis cinerea [10].

The values are drawn from ChEMBL document CHEMBL3045715, “Fungicidal Properties of N-(3, 5-Dichlorophenyl)-N-methoxyformamidine and Computer Studies of Its Active Structures” (J Pestic Sci, 1991).
